Experimental data as given in patent publication US10428083B2, “Heterocyclylmethyl-thienouracile as antagonists of the adenosine-A2B-receptor” (BAYER PHARMA AKTIENGESELLSCHAFT, priority 2015, dated 2019).
pIC50: −log10 of the molar value.

These compounds were tested against human adenosine A2b receptor (Homo sapiens (Human), UniProt P29275) (assay: Cellular in vitro reporter gene test for A2b receptor activity (CHO-K1, CRE-luciferase, NECA stimulation)). Conditions: not given.
human adenosine A2b receptor, sequence (P29275 whole entry): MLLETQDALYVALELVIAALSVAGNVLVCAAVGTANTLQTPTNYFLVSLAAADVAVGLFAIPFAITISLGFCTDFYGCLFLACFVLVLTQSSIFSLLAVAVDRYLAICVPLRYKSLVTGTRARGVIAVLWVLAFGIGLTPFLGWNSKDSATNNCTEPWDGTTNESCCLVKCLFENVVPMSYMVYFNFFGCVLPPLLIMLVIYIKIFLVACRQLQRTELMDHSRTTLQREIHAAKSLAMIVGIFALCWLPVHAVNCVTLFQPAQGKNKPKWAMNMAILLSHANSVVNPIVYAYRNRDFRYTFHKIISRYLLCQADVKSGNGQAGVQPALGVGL
Format: cell-based
Method in brief: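 CHO-K1 cells with CRE-driven luciferase; antagonists co-incubated with NECA at its EC50, determined in a pre-experiment on each test day. Luciferase read by luminescence 3 h after NECA addition.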
`COCCn1c(=O)n(C(C)C(F)(F)F)c(=O)c2c(C)c(Cn3nc[nH]c3=O)sc21` (racemic) [Example 438, 1-(2-Methoxyethyl)-5-methyl-6-[(5-oxo-4,5-dihydro-1H-1,2,4-triazol-1-yl)methyl]-3-(1,1,1-trifluoropropan-2-yl)thieno[2,3-d]pyrimidine-2,4(1H,3H)-dione] gave a pIC50 of 6.82. In the case of `Cc1c(CN2CCNC2=NC#N)sc2c1c(=O)n(C(C)C(F)(F)F)c(=O)n2CCC(F)(F)F` (racemic) [Example 451, [1-{[5-Methyl-2,4-dioxo-3-(1,1,1-trifluoropropan-2-yl)-1-(3,3,3-trifluoropropyl)-1,2,3,4-tetrahydrothieno[2,3-d]pyrimidin-6-yl]methyl}imidazolidin-2-ylidene]cyanamide], the pIC50 was 8.00.

Same assay, conditions: recombinant CHO-K1 cell line, CRE-luciferase reporter, antagonism of EC50 concentration of NECA; in some cases means of several determinations, rounded to two significant figures; read-out: A2b receptor IC50
In the case of `Cc1c(Cn2nc[nH]c2=O)sc2c1c(=O)n(C(C)C)c(=O)n2CC1CCCO1` (racemic) [Example 424, 3-Isopropyl-5-methyl-6-[(5-oxo-4,5-dihydro-1H-1,2,4-triazol-1-yl)methyl]-1-(tetrahydrofuran-2-ylmethyl)thieno[2,3-d]pyrimidine-2,4(1H,3H)-dione], the pIC50 was 7.06. In the case of `Cc1c(Cn2nc[nH]c2=O)sc2c1c(=O)n(CC(C)(C)C)c(=O)n2CC1CCCO1` (racemic) [Example 429, 3-(2,2-Dimethylpropyl)-5-methyl-6-[(5-oxo-4,5-dihydro-1H-1,2,4-triazol-1-yl)methyl]-1-(tetrahydrofuran-2-ylmethyl)thieno[2,3-d]pyrimidine-2,4(1H,3H)-dione], the pIC50 was 7.12. For `Cc1c(Cn2nc[nH]c2=O)sc2c1c(=O)n(CC(F)(F)F)c(=O)n2CC1CCCO1` (racemic) [Example 434, 5-Methyl-6-[(5-oxo-4,5-dihydro-H-1,2,4-triazol-1-yl)methyl]-1-(tetrahydrofuran-2-ylmethyl)-3-(2,2,2-trifluoroethyl)thieno[2,3-d]pyrimidine-2,4(1H,3H)-dione], the pIC50 was 7.09. `Cc1c(Cn2nc[nH]c2=O)sc2c1c(=O)n(C(C)C(F)(F)F)c(=O)n2CCC(F)(F)F` (racemic) [Example 437, 5-Methyl-6-[(5-oxo-4,5-dihydro-1H-1,2,4-triazol-1-yl)methyl]-3-(1,1,1-trifluoropropan-2-yl)-1-(3,3,3-trifluoropropyl)thieno[2,3-d]pyrimidine-2,4(1H,3H)-dione] showed a pIC50 of 7.32. `COC(C)Cn1c(=O)c2c(C)c(Cn3nc[nH]c3=O)sc2n(CCC(F)(F)F)c1=O` (racemic) [Example 440, 3-(2-Methoxypropyl)-5-methyl-6-[(5-oxo-4,5-dihydro-1H-1,2,4-triazol-1-yl)methyl]-1-(3,3,3-trifluoropropyl)thieno[2,3-d]pyrimidine-2,4(1H,3H)-dione] gave a pIC50 of 7.64. With `Cc1c(CN2CCNC2=NC#N)sc2c1c(=O)n(CC(C)(C)C)c(=O)n2CC1CCCO1` (racemic) [Example 446, [1-{[3-(2,2-Dimethylpropyl)-5-methyl-2,4-dioxo-1-(tetrahydrofuran-2-ylmethyl)-1,2,3,4-tetrahydrothieno[2,3-d]pyrimidin-6-yl]methyl}imidazolidin-2-ylidene]cyanamide] the pIC50 was 7.72. `COCCn1c(=O)n(C(C)C(F)(F)F)c(=O)c2c(C)c(CN3CCNC3=NC#N)sc21` (racemic) [Example 452, [1-{[1-(2-Methoxyethyl)-5-methyl-2,4-dioxo-3-(1,1,1-trifluoropropan-2-yl)-1,2,3,4-tetrahydrothieno[2,3-d]pyrimidin-6-yl]methyl}imidazolidin-2-ylidene]cyanamide] gave a pIC50 of 7.85. For `COC(C)Cn1c(=O)c2c(C)c(CN3CCNC3=NC#N)sc2n(CCC(F)(F)F)c1=O` (racemic) [Example 454, [1-{[3-(2-Methoxypropyl)-5-methyl-2,4-dioxo-1-(3,3,3-trifluoropropyl)-1,2,3,4-tetrahydrothieno[2,3-d]pyrimidin-6-yl]methyl}imidazolidin-2-ylidene]cyanamide], the pIC50 was 8.21. In the case of `COC(=O)N=C1NCCN1Cc1sc2c(c1C)c(=O)n(CC(C)(C)C)c(=O)n2CC1CCCO1` (racemic) [Example 463, Methyl [1-{[3-(2,2-dimethylpropyl)-5-methyl-2,4-dioxo-1-(tetrahydrofuran-2-ylmethyl)-1,2,3,4-tetrahydrothieno[2,3-d]pyrimidin-6-yl]methyl}imidazolidin-2-ylidene]carbamate], the pIC50 was 8.00. `COC(=O)N=C1NCCN1Cc1sc2c(c1C)c(=O)n(C(C)C(F)(F)F)c(=O)n2CCC(F)(F)F` (racemic) [Example 470, Methyl [1-{[5-methyl-2,4-dioxo-3-(1,1,1-trifluoropropan-2-yl)-1-(3,3,3-trifluoropropyl)-1,2,3,4-tetrahydrothieno[2,3-d]pyrimidin-6-yl]methyl}imidazolidin-2-ylidene]carbamate] was tested, and the pIC50 was 8.29. `COCCn1c(=O)n(C(C)C(F)(F)F)c(=O)c2c(C)c(CN3CCNC3=NC(=O)OC)sc21` (racemic) [Example 471, Methyl [1-{[1-(2-methoxyethyl)-5-methyl-2,4-dioxo-3-(1,1,1-trifluoropropan-2-yl)-1,2,3,4-tetrahydrothieno[2,3-d]pyrimidin-6-yl]methyl}imidazolidin-2-ylidene]carbamate] was tested, and the pIC50 was 7.74. Work on `COC(=O)N=C1NCCN1Cc1sc2c(c1C)c(=O)n(CC(C)OC)c(=O)n2CCC(F)(F)F` (racemic) [Example 472, Methyl [1-{[3-(2-methoxypropyl)-5-methyl-2,4-dioxo-1-(3,3,3-trifluoropropyl)-1,2,3,4-tetrahydrothieno[2,3-d]pyrimidin-6-yl]methyl}imidazolidin-2-ylidene]carbamate] yielded a pIC50 of 8.17. Work on `CCn1c(=O)c2c(C)c(CN3CCNC(=O)C3=O)sc2n(CC2CCCO2)c1=O` (racemic) [Example 475, 6-[(2,3-Dioxopiperazin-1-yl)methyl]-3-ethyl-5-methyl-1-(tetrahydrofuran-2-ylmethyl)thieno[2,3-d]pyrimidine-2,4(1H,3H)-dione] yielded a pIC50 of 7.44. Work on `Cc1c(CN2CCNC(=O)C2=O)sc2c1c(=O)n(C(C)C)c(=O)n2CC1CCCO1` (racemic) [Example 480, 6-[(2,3-Dioxopiperazin-1-yl)methyl]-3-isopropyl-5-methyl-1-(tetrahydrofuran-2-ylmethyl)thieno[2,3-d]pyrimidine-2,4(1H,3H)-dione] yielded a pIC50 of 7.46. Compound `Cc1c(CN2CCNC(=O)C2=O)sc2c1c(=O)n(CC(C)(C)C)c(=O)n2CC1CCCO1` (racemic) [Example 483, 3-(2,2-Dimethylpropyl)-6-[(2,3-dioxopiperazin-1-yl)methyl]-5-methyl-1-(tetrahydrofuran-2-ylmethyl)thieno[2,3-d]pyrimidine-2,4(1H,3H)-dione] has a pIC50 of 7.35. Work on `Cc1c(CN2CCNC(=O)C2=O)sc2c1c(=O)n(CC(F)(F)F)c(=O)n2CC1CCCO1` (racemic) [Example 487, 6-[(2,3-Dioxopiperazin-1-yl)methyl]-5-methyl-1-(tetrahydrofuran-2-ylmethyl)-3-(2,2,2-trifluoroethyl)thieno[2,3-d]pyrimidine-2,4(1H,3H)-dione] yielded a pIC50 of 6.60. With `Cc1c(CN2CCNC(=O)C2=O)sc2c1c(=O)n(C(C)C(F)(F)F)c(=O)n2CCC(F)(F)F` (racemic) [Example 490, 6-[(2,3-Dioxopiperazin-1-yl)methyl]-5-methyl-3-(1,1,1-trifluoropropan-2-yl)-1-(3,3,3-trifluoropropyl)thieno[2,3-d]pyrimidine-2,4(1H,3H)-dione] the pIC50 was 7.72.
